Reference: ChEMBL document CHEMBL2375237, “Optimization of allosteric MEK inhibitors. Part 1: Venturing into underexplored SAR territories” (Bioorg Med Chem Lett, 2013)

Each compound was assayed on HCT-116 (assay: Antiproliferative activity against human HCT116 cells expressing KRAS G13D mutant). Details: not given.
Assay type: functional, cell-based
Compound `NC(=O)c1c(Nc2ccc(I)cc2F)cc(F)cc1Oc1cccnc1` has an IC50 of 4180 nM.
`CCS(=O)(=O)Nc1cccc(Oc2cc(F)cc(Nc3ccc(I)cc3F)c2C(N)=O)c1` was tested, and the IC50 was 287 nM.
`CC(C)S(=O)(=O)Nc1cccc(Oc2cc(F)cc(Nc3ccc(I)cc3F)c2C(N)=O)c1` gave an IC50 of 459 nM.
Work on `CC(C)(O)C(O)CCOc1cc(F)cc(Nc2ccc(I)cc2F)c1C(N)=O` (stereo not drawn) yielded an IC50 of 2450 nM.
Work on `NC(=O)c1c(Nc2ccc(I)cc2F)cc(F)cc1Oc1ccc2oc(=O)[nH]c2c1` yielded an IC50 of 4510 nM.
Work on `CC(C)C(=O)Nc1cccc(Oc2cc(F)cc(Nc3ccc(I)cc3F)c2C(N)=O)c1` yielded an IC50 of 8810 nM.
In the case of `NC(=O)c1c(Nc2ccc(I)cc2F)cc(F)cc1Oc1cccc(NS(=O)(=O)N2CCCC2)c1`, the IC50 is reported as 412 nM.
For `CNS(=O)(=O)Nc1cccc(Oc2cc(F)cc(Nc3ccc(I)cc3F)c2C(N)=O)c1`, the IC50 was 103 nM.

What follows are compounds tested against Dual specificity mitogen-activated protein kinase kinase 1 (Homo sapiens, UniProt Q02750) (assay: Inhibition of MEK1 (unknown origin) after 2 hrs by fluorescence assay). Details: not given.
Chain of Dual specificity mitogen-activated protein kinase kinase 1 (Q02750 whole entry): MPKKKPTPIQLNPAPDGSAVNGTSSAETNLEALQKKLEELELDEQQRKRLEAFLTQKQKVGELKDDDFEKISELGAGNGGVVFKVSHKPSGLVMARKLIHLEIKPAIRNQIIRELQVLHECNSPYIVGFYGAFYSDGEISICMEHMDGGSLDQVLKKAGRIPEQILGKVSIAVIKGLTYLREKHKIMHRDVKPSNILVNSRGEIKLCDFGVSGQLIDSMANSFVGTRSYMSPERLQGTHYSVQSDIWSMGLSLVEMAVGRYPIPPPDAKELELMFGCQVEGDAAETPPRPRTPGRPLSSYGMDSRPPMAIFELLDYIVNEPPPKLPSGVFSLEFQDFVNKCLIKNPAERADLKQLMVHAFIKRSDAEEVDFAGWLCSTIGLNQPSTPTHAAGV
With `NC(=O)c1c(Nc2ccc(I)cc2F)cc(F)cc1Oc1cccnc1` the IC50 was 76 nM.
For `CCS(=O)(=O)Nc1cccc(Oc2cc(F)cc(Nc3ccc(I)cc3F)c2C(N)=O)c1`, the IC50 was 15 nM.
With `CC(C)S(=O)(=O)Nc1cccc(Oc2cc(F)cc(Nc3ccc(I)cc3F)c2C(N)=O)c1` the IC50 was 18 nM.
For `CC(C)(O)C(O)CCOc1cc(F)cc(Nc2ccc(I)cc2F)c1C(N)=O` (stereo not drawn), the IC50 was 43 nM.
Work on `NC(=O)c1c(Nc2ccc(I)cc2F)cc(F)cc1Oc1ccc2oc(=O)[nH]c2c1` yielded an IC50 of 36 nM.
For `CC(C)C(=O)Nc1cccc(Oc2cc(F)cc(Nc3ccc(I)cc3F)c2C(N)=O)c1`, the IC50 was 48 nM.
Work on `NC(=O)c1c(Nc2ccc(I)cc2F)cc(F)cc1Oc1cccc(NS(=O)(=O)N2CCCC2)c1` yielded an IC50 of 21 nM.

These compounds were tested on A-375 (assay: cells). Details: Homo sapiens, A-375, 72 h.
Description: Antiproliferative activity against human A375 cells expressing BRAF V600E mutant after 72 hrs by Cell titer-glo assay
In the case of `NC(=O)c1c(Nc2ccc(I)cc2F)cc(F)cc1Oc1cccnc1`, the IC50 is reported as 141 nM.
For `CCS(=O)(=O)Nc1cccc(Oc2cc(F)cc(Nc3ccc(I)cc3F)c2C(N)=O)c1`, the IC50 was less than 30 nM.
Work on `CC(C)S(=O)(=O)Nc1cccc(Oc2cc(F)cc(Nc3ccc(I)cc3F)c2C(N)=O)c1` yielded an IC50 of 17 nM.
`CC(C)(O)C(O)CCOc1cc(F)cc(Nc2ccc(I)cc2F)c1C(N)=O` (stereo not drawn) showed an IC50 of 40 nM.
Compound `NC(=O)c1c(Nc2ccc(I)cc2F)cc(F)cc1Oc1ccc2oc(=O)[nH]c2c1` has an IC50 of 35 nM.
`CC(C)C(=O)Nc1cccc(Oc2cc(F)cc(Nc3ccc(I)cc3F)c2C(N)=O)c1` showed an IC50 of 192 nM.
For `NC(=O)c1c(Nc2ccc(I)cc2F)cc(F)cc1Oc1cccc(NS(=O)(=O)N2CCCC2)c1`, the IC50 was 28 nM.
`CNS(=O)(=O)Nc1cccc(Oc2cc(F)cc(Nc3ccc(I)cc3F)c2C(N)=O)c1` showed an IC50 of 16 nM.
